Source: patent publication EP0327365B1, “Improvements in or relating to modified haptens useful as imaging and therapeutic agents” (HYBRITECH INCORPORATED, priority 1988, dated 1989)

Assays:
T-380 tumors = assay: Hapten biodistribution, premix protocol with bifunctional antibody ECH037.2; format: in vivo, nude mice; set-up: TOTAL RECOV: unit not given here; conditions: for % DOSE PER GRAM, KIDNEY / % DOSE PER GRAM, LIVER / % DOSE PER GRAM, TUMOR / FECES / TOTAL RECOV / URINE / % DOSE PER GRAM, BLOOD / TUMOR/BLOOD: premix with 20 µg ECH037.2; for % DOSE PER GRAM, BLOOD: 111In-labeled hapten i.v.; for TUMOR/BLOOD: ratio; for Percent Injected Dose in Feces: premix protocol (Table VI); for %Dose per Gram, Blood / %Dose per Gram, Tumor: premix with 20 µg ECH037.2 (Table VIII)
Procedure: Two protocols were used for examining the biodistribution of the derivatized haptens in the presence of the bifunctional antibody ECH037.2. In a premix protocol, ECH037.2 and the derivatized hapten were combined prior to injection in the animals. In the prelocalization protocol, ECH037.2 was injected into the animals, and the antibody was allowed to prelocalize for 24 hours prior to injection of the radiolabeled hapten.
Biodistribution studies were performed in nude mice carrying subcutaneous implants of the human colon carcinoma cell line T-380 which expresses the carcinoembryonic antigen (CEA) recognized by ECH037.2. Briefly, Balb/C Nu/Nu mice were injected subcutaneously with a minced preparation of T-380 tumor implants and maintained for approximately two weeks, or until the tumor implant had grown to a size of approximately 0.5 grams as described by Hagan, P.L., et al. J. Nuc. Med., 26 1418-1423 (1985). Mice were kept in a sterile environment to prevent complications due to bacterial or viral infections. Biodistributions were performed as described by Halpern, S., et al., Cancer Res. 43, 5347-5355 (1983). Briefly, the radiolabeled haptens were injected intravenously in […], and the pharmacokinetics were evaluated at several time points post-injection. At these times, mice were sacrificed and weighed. Organs were removed, their weight recorded, and each organ was then washed in sterile PBS, pH 7.0, and fixed in formalin solution. Samples of blood, urine and feces also were collected and their weight similarly recorded. The organs, or a portion thereof, were transferred to clean tubes and their radioactive content was determined in a well-type gamma-counter.
Relative radioactive content of each organ was expressed as a percentage of injected dose per organ.
To indium-label the haptens of the invention 10 »l of 0.1 mM ligand was combined with X »l of ¹¹¹InCl₃ (in 50 mM HCl) and (x+10) »l of 0.26 M ammonium citrate, pH 6.0. X is calculated by the following equation: X = (200 »Ci)/(A »Ci/»l) [formula] where A is the specific activity of the ¹¹¹In.
The labeling was done in an acid-washed microfuge tube. After combining all of the components above, the solution was vortexed and allowed to stand at room temperature for 15 minutes.
Incorporation of the ¹¹¹In into the chelating agent was determined by TLC on silica in a methanol/aqueous ammonium acetate solvent system as described by Meares, et al. (Anal. Biochem., 142, 68-75 (1984)). Greater than 95% incorporation of the radioactivity into the chelate was required for the sample to be submitted for a biodistribution assay.
Prior to injection the ¹¹¹In-labeled hapten was diluted into freshly prepared isotonic sodium bicarbonate (1.39% w/v) containing 1 mg/ml normal human serum albumin (Buminate, 25% solution, Travenol Laboratories, Glendale, California) to which the bifunctional antibody had been added. The final composition of the solution was 0.2 mg/ml ECH037.2, 0.5 »M chelate, 0.1 »Ci/»l ¹¹¹In, all in a volume of 2.0 ml. For the biodistribution studies, 100 »l of the solution was injected into the tail vein of each animal.

[1] = tested on: monoclonal antibody CHA255; assay: Determination of hapten-antibody dissociation rates; format: binding, BALB/c mice; conditions: 22°C; indium complex of hapten from CHA255 after 100 fold excess of indium-115 loaded hapten
Procedure: Hapten-antibody dissociation rates were determined using monoclonal antibody CHA255, prepared as described in Example 2A, by measuring the quantity of ¹¹¹In³⁺ chelate released from the antibody hapten complex as a function of time after addition of a 100 fold excess (over antibody binding sites) of indium-115 loaded hapten. Thus, for each hapten, a 700 »l solution was prepared containing: antibody at a concentration of 160 nM; indium loaded hapten, trace labeled with ¹¹¹In (total concentration = 160 nM); normal human serum albumin at a total concentration of 1.5 mg/mL; and isotonic phosphate buffered saline, (10 mM PO₄²⁻, 150 mM NaCl, pH 7.2). Indium-115 loaded hapten was added to a final Concentration of […]. Reactions were stirred by placing the sample containers ir a rack mounted on a vortexer head.
At various times after addition of the excess hapten, […] portions of the reaction solutions were transferred to Centrifree tubes (Amicon Corperation, Danvers, Massachusetts) and centrifuged at 1500xg for eight to ten minutes. The reaction time was taken to be the time between addition of the excess hapten and the time the centrifuge reached the desired velocity. Six timepoints, each in duplicate, were obtained over a range of about two reaction half-lives for each rate constant determination. A 200 »l portion from each centrifuged and uncentrifuged solution was then counted for ¹¹¹In. The relative concentration of free hapten was taken to be the ratio of counts in the centrifuged solution to the uncentrifuged solution at each timepoint. Times were recorded to the nearest tenth of a minute.
Room temperature rate constants were measured without the aid of a constant temperature bath. The ambient temperature remained at 22°±1 C.
Rate constants and standard deviations were obtained from a plot of the logarithm of relative complex concentration vs. time. Data were analyzed using the linear regression module of the RS/1 Program (BBN Software Products Corporation, Cambridge, Massachusetts).
Control samples were included in each experiment to determine: A) that the initial condition of 100% of labeled hapten bound to antibody was met, and B) that in the absence of antibody, 100% of counts were able to penetrate the Centrifree membrane. […]

% DOSE PER GRAM, KIDNEY (T-380 tumors; 24 hours)	% DOSE PER GRAM, LIVER (T-380 tumors; 24 hours)	% DOSE PER GRAM, TUMOR (T-380 tumors; 24 hours)	FECES (T-380 tumors; 24 hours)	TOTAL RECOV (T-380 tumors; 24 hours)	URINE (T-380 tumors; 24 hours)	% DOSE PER GRAM, BLOOD (T-380 tumors; 24 hours)	TUMOR/BLOOD (T-380 tumors; 24 hours)	Percent Injected Dose in Feces (T-380 tumors; 24 hrs.)	% DOSE PER GRAM, KIDNEY (T-380 tumors; 48 hours)	% DOSE PER GRAM, LIVER (T-380 tumors; 48 hours)	% DOSE PER GRAM, TUMOR (T-380 tumors; 48 hours)	FECES (T-380 tumors; 48 hours)	TOTAL RECOV (T-380 tumors; 48 hours)	URINE (T-380 tumors; 48 hours)	% DOSE PER GRAM, BLOOD (T-380 tumors; 48 hours)	TUMOR/BLOOD (T-380 tumors; 48 hours)	Percent Injected Dose in Feces (T-380 tumors; 48 hrs.)	SMILES	t1/2, Dissociation Half-Lives [1]	also measured
2.2 % DOSE PER GRAM	3.3 % DOSE PER GRAM	10.6 % DOSE PER GRAM	5.0% of total injected dose	53.7	23.6% of total injected dose	12.2 % DOSE PER GRAM	0.87	5.0 Percent Injected Dose	1.7 % DOSE PER GRAM	2.4 % DOSE PER GRAM	9.8 % DOSE PER GRAM	8.9% of total injected dose	61.7	36.0% of total injected dose	7.6 % DOSE PER GRAM	1.29	8.9 Percent Injected Dose	O=C(O)CCNC(=S)Nc1ccc(CC(CN(CC(=O)O)CC(=O)O)N(CC(=O)O)CC(=O)O)cc1 (stereo not drawn) [PATUBE]	1.46 h	
2.9 % DOSE PER GRAM	3.6 % DOSE PER GRAM	12.4 % DOSE PER GRAM	13.9% of total injected dose	57.2	20.3% of total injected dose	8.9 % DOSE PER GRAM	1.39	13.9 Percent Injected Dose	1.7 % DOSE PER GRAM	2.3 % DOSE PER GRAM	10.6 % DOSE PER GRAM	21.7% of total injected dose	62.4	24.5% of total injected dose	5.4 % DOSE PER GRAM	1.96	27.1 Percent Injected Dose	O=C(O)CN(CC(=O)O)CC(Cc1ccc(NC(=S)Nc2ccccc2)cc1)N(CC(=O)O)CC(=O)O (stereo not drawn) [PHTUBE]	1.25 h	
2.4 % DOSE PER GRAM	4.0 % DOSE PER GRAM	8.5 % DOSE PER GRAM	4.1% of total injected dose	48.2	23.7% of total injected dose	8.0 % DOSE PER GRAM	1.06	4.1 Percent Injected Dose	1.1 % DOSE PER GRAM	1.6 % DOSE PER GRAM	6.5 % DOSE PER GRAM	9.8% of total injected dose	69.5	48.8% of total injected dose	3.8 % DOSE PER GRAM	1.71	9.9 Percent Injected Dose	NC(=S)Nc1ccc(CC(CN(CC(=O)O)CC(=O)O)N(CC(=O)O)CC(=O)O)cc1 (stereo not drawn) [TUBE]	1.4 h	%Dose per Gram, Blood (T-380 tumors; 24 hrs. post-injection): 8.0 %Dose per Gram; %Dose per Gram, Tumor (T-380 tumors; 24 hrs. post-injection): 8.5 %Dose per Gram; %Dose per Gram, Blood (T-380 tumors; 48 hrs. post-injection): 3.8 %Dose per Gram; %Dose per Gram, Tumor (T-380 tumors; 48 hrs. post-injection): 6.5 %Dose per Gram; %Dose per Gram, Blood (T-380 tumors; 72 hrs. post-injection): 1.7 %Dose per Gram; %Dose per Gram, Tumor (T-380 tumors; 72 hrs. post-injection): 5.3 %Dose per Gram
